Data on 1 molecule can be found in publication PMC5766581, “NF-κB inducing kinase is a therapeutic target for systemic lupus erythematosus” (Nature Communications, 2018).

The test system of the experiment is TWEAK inducible genes in murine RPTEC. Briefly: TWEAK-induced NIK-dependent gene expression in RPTECs (RNASeq). It is filed as cell-based, mouse. Particulars: 3 μM. As for the experimental part: Total RNA was extracted using Qiagen RNeasy kit as per manufacturer’s protocol including the on-column DNase digestion. Quality control of samples was done to determine RNA quantity and quality prior to their processing by RNA-seq. The concentration of RNA samples was determined using NanoDrop 8000 (Thermo Scientific) and the integrity of RNA was determined by Fragment Analyzer (Advanced Analytical). 0.5 ug of total RNA was used as an input material for library preparation using TruSeq RNA Sample Preparation Kit v2 (Illumina). Size of the libraries was confirmed using 2200 TapeStation and High Sensitivity D1K screen tape (Agilent Technologies) and their concentration was determined by qPCR based method using Library quantification kit (KAPA). The libraries were multiplexed and then sequenced on Illumina HiSeq2500 (Illumina) to generate 30 M of single end 50 base pair reads. […] Raw RNA sequencing reads were processed using the HTSeqGenie Bioconductor package. Reads were aligned to the reference mouse genome sequence (National Center for Biotechnology Information build 37) using the Genomic Short-Read Nucleotide Alignment Program algorithm. Uniquely aligned read pairs that fell within exons were counted to estimate individual gene expression levels. For inclusion, genes were required to have >10 reads in at least four samples. […] Data were analyzed and plotted using Expression Plot[72].

SMILES strings stand for the structures.

Consider `COc1cc(C(N)=O)nc(-c2cccc(C#C[C@]3(O)CCN(C)C3=O)c2)c1` [NIK SMI1], for which the “TWEAK inducible gene expression” value (6 and 24 h, RNASeq) is listed as “majority of TWEAK inducible genes were inhibited”. The “genes induced by TWEAK and repressed by NIK SMI1” value (RPTEC in vitro) is recorded as 179 genes.
